These results are taken from ChEMBL document CHEMBL5678802, “Small-molecule p21-activated kinase inhibitor PF-3758309 is a potent inhibitor of oncogenic signaling and tumor growth” (Proc Natl Acad Sci U S A, 2010).

Active and inactive are the calls of the source. The rule behind the calls is not given here.

Assay [1] concerns the target T1, Serine/threonine-protein kinase PAK 4 (Homo sapiens, UniProt O96013). The experiment in a line: Inhibition of N-terminal 6His-tagged human recombinant PAK4 kinase domain (300 to 591 residues) using EVPRRKSLVGTPYWM peptide as substrate assessed as inhibition constant in presence of ATP by biochemical assay.
Assay [2] deals with T1, Serine/threonine-protein kinase PAK 4. The experiment in a line: Inhibition of PAK4 Kinase domain (291 to 591 residues) (unknown origin) transfected in TR-293-KDG cells using GEFH1 as substrate assessed as inhibition of PAK4-dependent phosphorylation of GEFH1 at S810 residue incubated for 3 hrs by ELISA. It counts as cell-based.
The subject of assay [3] is HCT-116. The assay is described as follows: Effect on phosphorylated PAK4 level in human HCT-116 cells at 1 uM incubated for 15 mins by Western blot analysis. Format: functional, cell-based.
Assay [4] deals with HCT-116. The experiment in a line: Effect on phosphorylated GEF-H1 level in human HCT-116 cells at 1 uM incubated for 15 mins by Western blot analysis. It counts as functional, cell-based.

T1 sequence (O96013 whole entry, the tested form may be a part): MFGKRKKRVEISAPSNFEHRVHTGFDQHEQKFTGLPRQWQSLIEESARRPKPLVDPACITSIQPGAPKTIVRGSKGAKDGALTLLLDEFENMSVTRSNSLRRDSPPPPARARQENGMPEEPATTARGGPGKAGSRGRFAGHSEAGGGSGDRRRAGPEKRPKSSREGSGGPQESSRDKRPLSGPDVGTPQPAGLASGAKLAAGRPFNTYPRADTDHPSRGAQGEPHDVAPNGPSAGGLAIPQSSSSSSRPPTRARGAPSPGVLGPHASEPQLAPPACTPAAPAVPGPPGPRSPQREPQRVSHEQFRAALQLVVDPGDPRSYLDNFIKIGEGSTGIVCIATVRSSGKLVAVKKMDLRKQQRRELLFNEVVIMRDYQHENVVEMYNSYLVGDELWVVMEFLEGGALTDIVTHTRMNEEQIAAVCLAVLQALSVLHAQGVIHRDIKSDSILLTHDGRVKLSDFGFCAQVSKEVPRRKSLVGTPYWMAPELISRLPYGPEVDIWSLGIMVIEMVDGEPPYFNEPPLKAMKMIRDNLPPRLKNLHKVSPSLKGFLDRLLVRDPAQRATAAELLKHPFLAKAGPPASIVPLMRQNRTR

As for `C[C@@H]1CN(C(=O)N2Cc3c(NC(=O)c4ccccn4)n[nH]c3C2(C)C)[C@@H](C)CN1CC1CCOCC1`, the Ki in assay [1] is 52 µM. The IC50 in assay [2] worked out at 10 µM.

In the case of `COc1ccc(C2=NC(c3ccc(Cl)cc3)C(c3ccc(Cl)cc3)N2C(=O)N2CCNC(=O)C2)c(OC(C)C)c1` (centres undefined), the inhibition result with HCT-116 [3] is “inactive”. Moreover, in the assay with HCT-116 [4], the result was inactive.
